Where a name gives a salt, the structure may show the parent alone.

The target of experiment [1] is T1, PIM1 serine/threonine kinase (Homo sapiens, UniProt P11309).
T1 construct: purchased Carna Bioscience, Inc
In words: PIM1 serine/threonine kinase inhibitory effect. It is filed as biochemical. The settings on record: PIM1 serine/threonine kinase activity; ATP 40 μM; 30° C., 30 minutes. The method, then:
Each test substance was prepared to 10 mM with dimethylsulfoxide (DMSO), and further diluted with DMSO so as to have concentrations of 1000, 300, 100, 30, 10, 3, 1, 0.3, 0.1, 0.03, 0.01, and 0.001 μM. Moreover, each dilution was further diluted 33.3-fold with an assay buffer to prepare a test substance solution. The composition of the assay buffer was 50 mM HEPES (pH 7.0), 0.02% NaN3, 0.01% Bovine Serum Albumin, 0.1 mM Orthovanadate, 1 mM Dithiothreitol, and 5 mM MgCl2.
5 μL of each test substance solution was added to 384-well plates (n=2), and then 2.5 μL of a substrate solution (substrate 3-biotin (Cisbio Bioassays SAS), final concentration in the reaction solution: 0.5 μM) and 2.5 μL of an ATP solution (in the cases of PIM1, 2, 3, the final concentrations in the reaction solutions were 40, 2, and 10 μM, respectively) were added, 5 μL of each of PIM1, 2, 3 serine/threonine kinase solutions (Carna Bioscience, Inc., the final concentrations in the reaction solutions were 0.15, 1.6, and 0.25 μg/ml, respectively) was finally added, and the mixture was reacted at 30° C. for 30 minutes. The test substance concentrations in the reaction solutions are 10000, 3000, 1000, 300, 100, 30, 10, 3, 1, 0.3, 0.1, and 0.01 nM.
Thereafter, 15 μL of each detection solution (62.5 nM Streptavidin-XL665 (Cisbio Bioassays SAS), […] STK antibody-Cryptate (Cisbio Bioassays SAS), 50 mM HEPES (pH 7.0), 0.8 M KF, 0.1% Bovine Serum Albumin, 20 mM ethylenediaminetetraacetic acid) was added to each well. After stirring, the mixture was reacted at 30° C. for 1 hour. Absorbance (OD620, OD665) at 620 and 665 nm was measured with a microplate reader (SpectraMax M5e, Molecular Devices, LLC).
Non-linear regression analysis was performed by an SAS system (SAS Institute Inc.) using the ratio (OD665/OD620) of the measured absorbance to calculate a test substance concentration (IC50) that inhibits PIM1 serine/threonine kinase activity by 50%.

Experiment [2] concerns the target PIM1 transgenic cells (Ba/F3) (Homo sapiens, UniProt P11309). Put plainly: Proliferation inhibitory effect on PIM1 transgenic cells. Type of experiment: cell-based, mouse. The settings on record: proliferation inhibition, 72 hours, Cell Counting Kit-8, read-out: PIM1 IC50. An excerpt:
Human PIM1, 2, and 3 genes were inserted into the multi-cloning sites of retrovirus expression vectors pMYs-IRES-GFP, respectively, to prepare gene transfer vectors. Then, each gene transfer vector was introduced into packaging cells PLAT-E derived from a human fetal kidney cell line in the logarithmic growth phase, using a transfection reagent (FuGENE6, Promega Corporation). Since the culture supernatant of PLAT-E after gene transfer contained virus particles for gene transfer, the culture supernatant was collected and used as a medium for gene transfer. The medium for gene transfer was added to a plate coated with RetroNectin, and the plate was incubated to attach the virus particles to the plate. Then, a mouse pro-B cell line Ba/F3 in the logarithmic growth phase was seeded on the plate and infected with the virus to prepare PIM1, 2, or 3 transgenic cells that proliferate in a PIM 1, 2, or 3-dependent manner. The expression of PIM1, 2, or 3 protein in each cell was confirmed by Western blotting.
Each test substance was prepared to 10 mM with dimethylsulfoxide (DMSO), and diluted with DMSO so as to have concentrations of 3000, 1000, 300, 100, 30, 10, 3, and 1 μM. Moreover, each dilution was further diluted 10-fold with distilled water to prepare a test substance solution.
PIM1, 2, 3-expressing cells were seeded on a 96-well plate, and each test substance solution prepared the next day was added such that final concentrations were 10000, 3000, 1000, 300, 100, 30, 10, 3, and 1 nM. 72 hours after the addition, 10 μL of Cell Counting Kit-8 (DOJINDO LABORATORIES) was added to each well. After incubation for 1 to 4 hours, absorbance OD450 at 450 nm was measured. In addition, absorption OD650 at 650 nm as a reference wavelength was measured.
OD450-OD650 for each condition was calculated, and then the inhibition rates when OD450-OD650 of negative control (DMSO only) and OD450-OD650 of Blank (without cells) were set to 0% and 100%, respectively, were calculated. Then, non-linear regression analysis was performed for logarithmic dose and inhibition rate using a two-parameter logistic model to estimate IC50 values.

Sequence of PIM1 transgenic cells (Ba/F3) (P11309 whole entry, stated change not applied): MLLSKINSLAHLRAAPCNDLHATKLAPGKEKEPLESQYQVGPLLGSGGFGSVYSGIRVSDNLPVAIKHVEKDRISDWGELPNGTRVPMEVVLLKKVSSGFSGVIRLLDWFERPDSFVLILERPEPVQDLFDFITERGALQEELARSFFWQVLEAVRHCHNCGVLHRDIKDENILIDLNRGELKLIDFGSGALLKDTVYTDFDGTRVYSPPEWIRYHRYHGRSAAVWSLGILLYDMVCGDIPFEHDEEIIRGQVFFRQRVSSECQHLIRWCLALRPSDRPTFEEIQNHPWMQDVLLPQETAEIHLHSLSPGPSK
T1 sequence (P11309 whole entry): as the sequence (P11309 whole entry, stated change not applied) above

With `C[C@H](Nc1c(F)c(-c2n[nH]c(=O)o2)cc(F)c1Cl)C1CCNCC1` [Example 88, 5-(4-chloro-2,5-difluoro-3-{[(1S)-1-(piperidin-4-yl)ethyl]amino}phenyl)-1,3,4-oxadiazol-2(3H)-one hydrochloride], the IC50 – broadly, the concentration needed to halve the response being measured – in experiment [1] was determined as 2.4 nM. In experiment [2], the GI50 was found to be 110 nM. The like results for `N[C@H]1CC[C@H](COc2cc(-c3n[nH]c(=O)o3)ccc2C(F)(F)F)CC1` [Example 240, 5-[3-{[(1r,4r)-4-aminocyclohexyl]methoxy}-4-(trifluoromethyl)phenyl]-1,3,4-oxadiazol-2(3H)-one] were, in that order, 1.9 nM and 87 nM.

`CCC1(CNc2cc(-c3n[nH]c(=O)o3)ccc2C(F)(F)F)CCNCC1` [Example 122, 5-[3-{[(4-ethylpiperidin-4-yl)methyl]amino}-4-(trifluoromethyl)phenyl]-1,3,4-oxadiazol-2(3H)-one hydrochloride]: in experiment [1], half-maximal inhibition (IC50) required 6.5 nM. Moreover, in experiment [2], the GI50 was determined as 220 nM. The like results for `C[C@H](Nc1nc(-c2n[nH]c(=O)o2)ccc1C(F)(F)F)C1CCNCC1` [Example 114, 5-[6-{[(1S)-1-(piperidin-4-yl)ethyl]amino}-5-(trifluoromethyl)pyridin-2-yl]-1,3,4-oxadiazol-2(3H)-one hydrochloride hydrochloride] were, in that order, 8.4 nM and 300 nM. Compound `C[C@H](Nc1cc(-c2n[nH]c(=O)o2)cc(F)c1OC(F)(F)F)[C@H]1C[C@@H](N)C1` [Example 180, 5-[3-({(1S)-1-[(1s,3R)-3-aminocyclobutyl]ethyl}amino)-5-fluoro-4-(trifluoromethoxy)phenyl]-1,3,4-oxadiazol-2(3H)-one hydrochloride] yielded an IC50 in experiment [1] of 2.2 nM. The GI50 in experiment [2] amounted to 30 nM. In experiment [1], `C[C@H](Nc1cc(-c2n[nH]c(=O)o2)ccc1C#N)C1CCNCC1` [Example 85, 4-(5-oxo-4,5-dihydro-1,3,4-oxadiazol-2-yl)-2-{[(1S)-1-(piperidin-4-yl)ethyl]amino}benzonitrile hydrochloride] showed an IC50 of 4.7 nM. Moreover, the GI50 in experiment [2] came to 610 nM. The like results for `N[C@H]1CC[C@H](CSc2cc(-c3n[nH]c(=O)o3)ccc2C(F)(F)F)CC1` [Example 234, 5-[3-({[(1r,4r)-4-aminocyclohexyl]methyl}sulfanyl)-4-(trifluoromethyl)phenyl]-1,3,4-oxadiazol-2(3H)-one] were, in that order, 2.6 nM and 120 nM. The like results for `CCC(Nc1cc(-c2n[nH]c(=O)o2)ccc1C(F)(F)F)C1CCNCC1` (centres unmarked) [Example 56, 5-[3-{[1-(piperidin-4-yl)propyl]amino}-4-(trifluoromethyl)phenyl]-1,3,4-oxadiazol-2(3H)-one hydrochloride] were, in that order, 7 nM and 200 nM. The like results for `O=c1[nH]nc(-c2cc(F)c(C(F)(F)F)c(N[C@@H](C(F)F)C3(F)CCNCC3)c2)o1` [Example 163, 5-[3-{[(1R)-2,2-difluoro-1-(4-fluoropiperidin-4-yl)ethyl]amino}-5-fluoro-4-(trifluoromethyl)phenyl]-1,3,4-oxadiazol-2(3H)-one hydrochloride] were, in that order, 2 nM and 24 nM. In turn, `C[C@H](Nc1cc(-c2n[nH]c(=O)o2)cc(F)c1C(F)(F)F)[C@@H]1CCNC[C@@H]1C` [Example 211, 5-[3-fluoro-5-({(1S)-1-[(3R,4R)-3-methylpiperidin-4-yl]ethyl}amino)-4-(trifluoromethyl)phenyl]-1,3,4-oxadiazol-2(3H)-one] returned an IC50 in experiment [1] of 4.9 nM. Also, in experiment [2], the GI50 was determined as 110 nM. With `C[C@H](Nc1cc(-c2n[nH]c(=O)o2)ccc1C(F)(F)F)C12CC(N)(C1)C2` [Example 185, 5-[3-{[(1S)-1-(3-aminobicyclo[1.1.1]pentan-1-yl)ethyl]amino}-4-(trifluoromethyl)phenyl]-1,3,4-oxadiazol-2(3H)-one], the GI50 in experiment [2] worked out at 87 nM. Consider `CC(C)(C)OC(=O)NCc1ccc(-c2cc(-c3n[nH]c(=O)o3)ccc2C(F)(F)F)cc1` [Example 19, tert-butyl {[5′-(5-oxo-4,5-dihydro-1,3,4-oxadiazol-2-yl)-2′-(trifluoromethyl)[1,1′-biphenyl]-4-yl]methyl}carbamate], for which, in experiment [1], the half-maximal inhibitory concentration (IC50) turned out to be 1500 nM.

For the compound `C[C@H](Nc1cc(-c2n[nH]c(=O)o2)ccn1)C1CCNCC1` [Example 112, 5-(2-{[(1S)-1-(piperidin-4-yl)ethyl]amino}pyridin-4-yl)-1,3,4-oxadiazol-2(3H)-one dihydrochloride], the midpoint of inhibition in experiment [1], the IC50, lay at 600 nM. Regarding `O=c1[nH]nc(-c2ccc(C(F)(F)F)c(NC[C@H]3CC[C@H](C(=O)O)CC3)c2)o1` [Example 119, (1r,4r)-4-{[5-(5-oxo-4,5-dihydro-1,3,4-oxadiazol-2-yl)-2-(trifluoromethyl)anilino]methyl}cyclohexane-1-carboxylic acid], the IC50 in experiment [1] was 1800 nM. In turn, `CC(C)(C)OC(=O)NCc1cccc(-c2cc(-c3n[nH]c(=O)o3)ccc2Cl)c1` [Example 17, tert-butyl {[2′-chloro-5′-(5-oxo-4,5-dihydro-1,3,4-oxadiazol-2-yl)[1,1′-biphenyl]-3-yl]methyl}carbamate] gave an IC50 in experiment [1] of 1300 nM.

In turn, `COc1ccc(-c2n[nH]c(=O)o2)cc1N[C@@H](C)C1CCNCC1` [Example 82, 5-(4-methoxy-3-{[(1S)-1-(piperidin-4-yl)ethyl]amino}phenyl)-1,3,4-oxadiazol-2(3H)-one dihydrochloride] displayed an IC50 in experiment [1] of 71 nM. On the same count and under the same terms, under `C[C@H](Nc1cc(-c2n[nH]c(=O)o2)ccc1S(C)(=O)=O)C1CCNCC1` [Example 128, 5-[4-(methanesulfonyl)-3-{[(1S)-1-(piperidin-4-yl)ethyl]amino}phenyl]-1,3,4-oxadiazol-2(3H)-one hydrochloride] stands 82 nM; under `C[C@H](Nc1cc(-c2n[nH]c(=O)o2)ccc1F)C1CCNCC1` [Example 80, 5-(4-fluoro-3-{[(1S)-1-(piperidin-4-yl)ethyl]amino}phenyl)-1,3,4-oxadiazol-2(3H)-one hydrochloride], 56 nM. On the same count and under the same terms, to `CC(C)(C)OC(=O)[C@H]1CC[C@H](CNc2cc(-c3n[nH]c(=O)o3)ccc2C(F)(F)F)CC1` [Example 118, tert-butyl (1r,4r)-4-{[5-(5-oxo-4,5-dihydro-1,3,4-oxadiazol-2-yl)-2-(trifluoromethyl)anilino]methyl}cyclohexane-1-carboxylate] belongs 7300 nM. The same measure, in the same setting: under `O=c1[nH]nc(-c2ccc(Cl)c(N3CCNCC3)c2)o1` [Example 8, 5-[4-chloro-3-(piperazin-1-yl)phenyl]-1,3,4-oxadiazol-2(3H)-one hydrochloride] stands 810 nM; under `CC(=O)N1CCC(N(C)Cc2cc(-c3n[nH]c(=O)o3)ccc2Cl)CC1` [Example 215, 5-(3-{[(1-acetylpiperidin-4-yl)(methyl)amino]methyl}-4-chlorophenyl)-1,3,4-oxadiazol-2(3H)-one hydrochloride], 8800 nM; under `O=c1[nH]nc(-c2ccc(C(F)(F)F)c(-c3ccc(OCC4CCNCC4)cc3)c2)o1` [Example 23, 5-{4′-[(piperidin-4-yl)methoxy]-6-(trifluoromethyl)[1,1′-biphenyl]-3-yl}-1,3,4-oxadiazol-2(3H)-one hydrochloride], 110 nM.

Values taken from patent US20220024921A1, “1,3,4-OXADIAZOLONE COMPOUND AND PHARMACEUTICAL” (NIPPON SHINYAKU CO., LTD., priority 2018, published 2022).
